Experimental data published in patent publication US20230068020A1, “MACROLIDE COMPOUND AND ITS USE OF TREATMENT CHRONIC RESPIRATORY DISEASE” (priority 2020, published 2023).

How the values were obtained:
Format in all cases: cell-based
THP-1 cell [1] = assay: Cell viability (LD50) in THP-1 differentiation test; conditions: human
Procedure: The medium lethal dose (LD50) is the dosage of a compound that reduces the cell viability by 50%, and is determined using non-linear logistic regression.

THP-1 cell [2] = assay: Differentiation of monocyte to macrophage in THP-1 cell line; conditions: Homo sapiens; for EC50: THP-1 differentiate to macrophage, PMA, 96 hrs incubation; for Emax: ratio of best effect of compound to that of erythromycin 100 uM, THP-1 differentiation, read-out: Maximal activation level
Procedure: The THP-1 cell line was purchased from ATCC (American Type Culture Collection, Manassas, Va.). Cells were maintained in growth medium (RPMI-1640) with supplemented with 10% heat inactivated bovine serum, 100× Glutamax medium and 0.05 mM β-Mercaptoethanol at 37° C. under 5% CO2. Compounds were dissolved in 0.1% DMSO. Erythromycin was used as a positive control.
For the assessment of the effect of compounds of the present invention on differentiation of monocyte to macrophage in THP-1 cell line, cells were collected and centrifuged at 900 rpm for 4 minutes. The cell density was adjusted to 2.5×10^5/mL. cell suspension of 400 μL was added to each well of 48-well plate following the plate layout. PMA 1 mg, a compound can induce monocyte differentiation, was dissolved in 10 mL DMSO to form 100 μg/mL solution and aliquote it into 1 mL per vial. 1 mL solution can be further aliquoted into 10 μL per vial and stored the aliquots at −20° C. Make 10-fold dilution of PMA with DMSO and then 500-fold dilution with complete medium. 50 μL solution were then added to each well of 48-well plate following the plate layout. Erythromycin and compounds of examples at stock concentration of 10 mM was serially diluted at 10-fold in DMSO. 50 μL solution was added to each well of 48-well plate following the plate layout. After 96 hrs incubation at 37° C., 5% CO2, the plate was washed with DPBS for three times to remove non-adherent cells for three times. Complete medium 180 μL and alarmar blue 20 μL was added to each well. The fluorescent intensity was read at excitation 530 nm and emission 590 nm using PerkinElmer Victor3 after 3 hours plate incubation.
The differentiation activity of compounds of Examples is compared to that of 100 μM erythromycin and the results are shown in FIG. 1 and Table 3.

[3] = system: Staphylococcus aureus NRS 384; assay: Antibacterial activity, agar dilution MIC; conditions: NRS384, 20-24 hrs incubation, read-out: minimum inhibitory concentration MIC
Procedure: (§1) The antibacterial activity of Erythromycin and compounds of examples were evaluated by the agar dilution method, following the guidelines of the CLSI. […] Briefly, bacteria were grown overnight in adapted media (MHIIA with 5% of sheep blood for Streptococcus pneumoniae and Haemophilus influenzae, and MHIIA for the other bacteria strains) at 35° C., 5% CO2.
(§2) Cultures were centrifuged at 3000×g for 15 min. Pellets were diluted with 5 mls cold PBS and the OD600nm was adjusted to 10^8 CFU.mL^−1 with a spectrometer. Bacteria were then added to 96-well test plates. Compounds were diluted in DMSO in a 2 fold steps from 20 mg/ml in DMSO in 96 well plated and transferred to the test plate. During the incubation, the plate was maintained at 35° C., 5% CO2.
(§3) The MICs for Erythromycin and compounds of examples were determined after 20-24 hrs incubation.

[4] = system: Haemophilus influenzae ATCC 49247; assay: Antibacterial activity, agar dilution MIC; conditions: ATCC49247, 20-24 hrs incubation, read-out: minimum inhibitory concentration MIC
Procedure: as §1, §2, §3

[5] = system: Streptococcus pyogenes ATCC BAA-572; assay: Antibacterial activity, agar dilution MIC; conditions: ATCCBAA572, 20-24 hrs incubation, read-out: minimum inhibitory concentration MIC
Procedure: as §1, §2, §3

[6] = system: Streptococcus pneumoniae ATCC 49619; assay: Antibacterial activity, agar dilution MIC; conditions: ATCC49619, 20-24 hrs incubation, read-out: minimum inhibitory concentration MIC
Procedure: as §1, §2, §3

[7] = system: Enterococcus faecalis ATCC 29212; assay: Antibacterial activity, agar dilution MIC; conditions: ATCC29212, 20-24 hrs incubation, read-out: minimum inhibitory concentration MIC
Procedure: as §1, §2, §3

[8] = system: Moraxella catarrhalis ATCC 43617; assay: Antibacterial activity, agar dilution MIC; conditions: ATCC43617, 20-24 hrs incubation, read-out: minimum inhibitory concentration MIC
Procedure: as §1, §2, §3

[9] = system: Streptococcus pneumoniae ATCC 6301; assay: Antibacterial activity, agar dilution MIC; conditions: ATCC6301, 20-24 hrs incubation, read-out: minimum inhibitory concentration MIC
Procedure: as §1, §2, §3

[10] = system: Staphylococcus aureus ATCC 29213; assay: Antibacterial activity, agar dilution MIC; conditions: ATCC29213, 20-24 hrs incubation, read-out: minimum inhibitory concentration MIC
Procedure: as §1, §2, §3

[11] = system: Acinetobacter baumanii ATCC 17978; assay: Antibacterial activity, agar dilution MIC; conditions: Acinetobacter baumannii, ATCC17978, 20-24 hrs incubation, read-out: minimum inhibitory concentration MIC
Procedure: as §1, §2, §3

[12] = system: Acinetobacter baumannii ATCC-BAA-1605; assay: Antibacterial activity, agar dilution MIC; conditions: ATCCBAA1605, 20-24 hrs incubation, read-out: minimum inhibitory concentration MIC
Procedure: as §1, §2, §3

[13] = system: IL-8 expression in BEAS-2B cell; assay: LPS induced IL-8 release by BEAS-2B (ELISA); conditions: for Maximum Inhibition: IL-8 expression in BEAS-2B cells, LPS; for IC10: concentration inhibiting IL-8 production on BEAS-2B by 10%, LPS 20 μg/mL
Procedure: The inhibitory effect of compounds of Examples on the IL-8 expression in BEAS-2B cell was tested using the following method. BEAS-2B was purchased from ATCC (American Type Culture Collection, Manassas, Va.). Cells were maintained in growth medium (LHC-9) and cultured at 37° C. under 5% CO2. Compounds were dissolved in 0.1% DMSO. Erythromycin was used as a positive control.
For the assessment of the effect of compounds of Examples on IL-8 expression inhibition in BEAS-2B cell line, cells were plated in 24 well plate at a density of 100,000/mL, in a final volume of 1 mL of assay medium. Cells were incubated at 37° C., 5% CO2 for 1 day. After the incubation, compounds were added at day 2 and LPS was added at day 3. A compound source plate was prepared by triplicate five-point 10-fold or 2-fold serial dilutions in DMSO, beginning at 1 mM (final top concentration of compounds of Examples in the assay was 100 μM and the DMSO was 0.1%). The positive control consisted of cells treated with 100 μM erythromycin and negative control was consisted of 0.1% DMSO treated cells. LPS stock solution at 5 mg/mL was made by dissolving 10 mg of LPS powder into 2 mL of ddH2O and aliquoted to 100 μL per vial. Final concentration of LPS in the assay was […] by making 125-fold dilution of stock solution with medium.
Specific immunoreactivity for IL-8 in culture supernatants were measured by a commercially available ELISA kits (R&D Systems, Inc., Minneapolis, Minn.). Each sample was assayed in duplicates as recommended by the manufacture. The concentration of compounds of Examples inhibiting IL-8 production on BEAS-2B by 10% was estimated from a 4-parametric of the normalized dose response curve. (IC10)

BEAS-2B cell = assay: Cell viability (LD10) in BEAS-2B IL-8 test; conditions: BEAS-2B cell viability
Source text: The lethal dose (LD10) is the dosage of a compound that reduces the cell viability by […], and is estimated from non-linear logistic regression.

SMILES	LD50 (THP-1 cell [1])	EC50 (THP-1 cell [2])	Emax (THP-1 cell [2])	MIC [3]	MIC [4]	MIC [5]	MIC [6]	MIC [7]	MIC [8]	MIC [9]	MIC [10]	MIC [11]	MIC [12]	Maximum Inhibition [13]	IL-8 inhibitory activity compared with erythromycin ([13]; at 100 μM concentration, BEAS-2B)	IC10 [13]	LD10 (BEAS-2B cell)
CC[C@H]1OC(=O)[C@H](C)[C@@H](OC2CC(C)(OC)C(O)C(C)O2)[C@H](C)[C@@H](OC2CC(N(C)C(C)=O)CC(C)O2)C(C)(O)C[C@@H](C)C(=O)[C@H](C)[C@@H](O)[C@]1(C)O (stereo in doubt) [LY101-22, N-((2S,4S,6R)-2-(((3R,4S,5S,6R,7R,9R,11R,12R,13S,14R)-14-ethyl-7,12,13-trihydroxy-4-(((2R,4R,5S,6S)-5-hydroxy-4-methoxy-4,6-dimethyltetrahydro-2H-pyran-2-yl)oxy)-3,5,7,9,11,13-hexamethyl-2,10-dioxooxacyclotetradecan-6-yl)oxy)-6-methyltetrahydro-2H-pyran-4-yl)-N-methylacetamide]	125 ± 7.1 µM	12.1 ± 2.7 µM	790 ± 50%	> 128 µg/mL	> 128 µg/mL	> 128 µg/mL	> 128 µg/mL	> 128 µg/mL	> 128 µg/mL	> 128 µg/mL	> 128 µg/mL	> 128 µg/mL	> 128 µg/mL	33%	more potent inhibitory activity than erythromycin	10 µM	100 µM
CC[C@H]1OC(=O)[C@H](C)[C@@H](O[C@H]2C[C@@](C)(OC)[C@@H](O)[C@H](C)O2)[C@H](C)[C@@H](O[C@H]2C[C@@H](NC)C[C@@H](C)O2)[C@@](C)(O)C[C@@H](C)C(=O)[C@H](C)[C@@H](O)[C@]1(C)O [LY101-25, (3R,4S,5S,6R,9R,11R,12R,13S,14R)-14-ethyl-7,12,13-trihydroxy-4-(((2R,4R,5S,6S)-5-hydroxy-4-methoxy-4,6-dimethyltetrahydro-2H-pyran-2-yl)oxy)-3,5,7,9,11,13-hexamethyl-6-(((2S,4S,6R)-6-methyl-4-(methylamino)tetrahydro-2H-pyran-2-yl)oxy)oxacyclotetradecane-2,10-dione]	21.1 ± 5.3 µM	1 ± 0.3 µM	540 ± 110%	> 128 µg/mL	> 128 µg/mL	> 128 µg/mL	> 128 µg/mL	> 128 µg/mL	> 128 µg/mL	> 128 µg/mL	> 128 µg/mL	> 128 µg/mL	> 128 µg/mL	53%		1 µM	15 µM
CC[C@H]1OC(=O)[C@H](C)[C@@H](OC2CC(C)(OC)C(O)C(C)O2)[C@H](C)[C@@H](OC2CC(N(C)C)CC(C)O2)[C@@](C)(O)C[C@@H](C)/C(=N\OCOCCOC)[C@H](C)[C@@H](O)[C@]1(C)O (some centres unmarked) [LY101-39]	90.0 ± 18.4 µM	10.1 ± 2.2 µM	740 ± 80%	> 128 µg/mL	> 128 µg/mL	> 128 µg/mL	> 128 µg/mL	> 128 µg/mL	> 128 µg/mL	> 128 µg/mL	> 128 µg/mL	> 128 µg/mL	> 128 µg/mL	35%		20 µM	100 µM
CC[C@H]1OC(=O)[C@H](C)[C@@H](OC2CC(C)(OC)C(O)C(C)O2)[C@H](C)[C@@H](OC2CC(N(C)C)CC(C)O2)[C@@](C)(O)C[C@@H](C)[C@H](O)[C@H](C)[C@@H](O)[C@]1(C)O (some centres unmarked) [LY101-45]	24.2 ± 5.1 µM	1.5 ± 0.7 µM	530 ± 60%	> 128 µg/mL	> 128 µg/mL	> 128 µg/mL	> 128 µg/mL	> 128 µg/mL	> 128 µg/mL	> 128 µg/mL	> 128 µg/mL	> 128 µg/mL	> 128 µg/mL	40%		1 µM	15 µM
